Assay results published in US20240115654A1, “INTRAVENOUS ADMINISTRATION OF ENGINEERED ANTIMICROBIAL AMPHIPHILIC PEPTIDES” (priority 2021, published 2024).
Like-named read-outs stand apart in the source and are kept apart here. Peptide text beside a SMILES is read from it.

Excerpt: All subjects who met eligibility criteria were confined to the clinical research unit from […] through Day 3. At admission, physical examination, vital signs, 12 lead ECG and weight were obtained, medical and medication history were updated if necessary, safety blood tests (hematology and chemistry), urinalysis, urine drug screen and an alcohol breath test were repeated and a urine pregnancy test was done for women of childbearing potential.
At each dose level, there were 2 sentinel subjects, (1 active, 1 placebo), who were dosed at least 48 hours in advance of the other subjects in their respective group. Following review of safety data, including physical examination, vital signs, and review of adverse events from the first 2 subjects, enrolment in the cohort continued.
A 12-lead ECG was performed on Day 1, within 60 minutes of infusion start (in triplicate), mid-way through the infusion, at the completion of the infusion, 30 minutes after completion of the infusion and at various timepoints following the end of the infusion.
Vital signs were recorded within 60 minutes pre-dose, at the mid-point of the infusion and post dose vitals were assessed at completion of the infusion, 0.5, 1, 2, 3, 4, 6, 9, 12, 24 and 48 hours post dose, after at least 3 minutes of rest in supine position.
Subjects returned to the study center 7 days after dosing, for the termination visit. A full physical examination, vital signs and weight were obtained, concomitant medications were updated if necessary, safety blood specimens (haematology and chemistry, PT and aPTT) and urine were collected for urinalysis and urine drug screening. A serum pregnancy test was done for women of childbearing potential and a 12-lead ECG was performed.
In this study dose limiting toxicity (DLT) was defined as any drug related ≥Grade 3 AEs occurring despite optimal therapeutic interventions (which included but were not limited to allergic/hypersensitivity reactions, dermatological reactions/infusion site reactions, haematological toxicities such as neutropenia, thrombocytopenia and anaemia and clinical chemistry abnormalities) experienced up to Day 7 (Termination Visit).
(§1) All subjects who received any amount of study drug were included in the safety analysis (Safety population).
The study was a double blinded, randomized, placebo-controlled study. The placebo administered was 0.9% sodium chloride.
On Day 1 (day of dosing), subjects were randomly assigned either peptide IV or Placebo IV. At each dose level, there were 2 sentinel subjects, (1 active, 1 placebo), who were dosed at least 48 hours in advance of the other subjects in their respective group. Following review of safety data, including physical examination, vital signs, and review of adverse events from the first 2 subjects, enrolment in the cohort continued. All subjects who met eligibility criteria were confined to the clinical research unit from Day −2 through Day 3. At admission, physical examination, vital signs, 12 lead ECG and weight were obtained, medical and medication history were updated if necessary, safety blood tests (hematology and chemistry), urinalysis, urine drug screen and an alcohol breath test were repeated and a urine pregnancy test was done for women of childbearing potential.
as §1

[1] = Cohort 1: 0.05 mg/kg IV 1-hr infusion (N = 6)
[2] = Cohort 1: 0.05 mg/kg IV 1 hour infusion, subject 001-S008
[3] = Cohort 4 0.05 mg/kg IV 2-hr infusion, participant 001-S086

CC(C)[C@H](NC(=O)[C@H](Cc1c[nH]c2ccccc12)NC(=O)[C@H](CCCNC(=N)N)NC(=O)[C@H](CCCNC(=N)N)NC(=O)[C@@H](NC(=O)[C@@H](NC(=O)[C@H](CCCNC(=N)N)NC(=O)[C@@H](NC(=O)[C@@H](NC(=O)[C@H](CCCNC(=N)N)NC(=O)[C@H](CCCNC(=N)N)NC(=O)[C@H](Cc1c[nH]c2ccccc12)NC(=O)[C@@H](NC(=O)[C@H](CCCNC(=N)N)NC(=O)[C@H](CCCNC(=N)N)NC(=O)[C@@H](NC(=O)[C@H](CCCNC(=N)N)NC(=O)[C@H](CCCNC(=N)N)NC(=O)[C@@H](NC(=O)[C@H](Cc1c[nH]c2ccccc12)NC(=O)[C@H](CCCNC(=N)N)NC(=O)[C@@H](N)CCCNC(=N)N)C(C)C)C(C)C)C(C)C)C(C)C)C(C)C)C(C)C)C(C)C)C(=O)N[C@@H](CCCNC(=N)N)C(=O)N[C@@H](CCCNC(=N)N)C(N)=O [SEQ ID NO: 1] (H-RRWVRRVRRVWRRVVRVVRRWVRR-NH2)
Participants With At Least 1 TEAE, occurrences m [1]: 7 | Participants With At Least 1 Treatment-Related TEAE, n (%) [1]: 1 (16.7%) | Participants With At Least 1 Treatment-Related TEAE, occurrences m [1]: 1 | TEAE Severity Grade 1, m [1]: 7 | TEAE Severity Grade 1, n (%) [1]: 5 (83.3%) | TEAE Severity Grade 2, n (%) [1]: 0 | TEAE by system organ class: Blood and Lymphatic System Disorders, participants n (%) [1]: 0 | TEAE by system organ class: Gastrointestinal Disorders, occurrences m [1]: 1 | TEAE by system organ class: Gastrointestinal Disorders, participants n (%) [1]: 1 (16.7%) | TEAE by system organ class: General Disorders and Administration Site Conditions, occurrences m [1]: 1 | TEAE by system organ class: General Disorders and Administration Site Conditions, participants n (%) [1]: 1 (16.7%) | TEAE by system organ class: Infections and Infestations, participants n (%) [1]: 0 | TEAE by system organ class: Injury, Poisoning, and Procedural Complications, occurrences m [1]: 3 | TEAE by system organ class: Injury, Poisoning, and Procedural Complications, participants n (%) [1]: 3 (30.0%) | TEAE by system organ class: Musculoskeletal and Connective Tissue Disorders, participants n (%) [1]: 0 | TEAE by system organ class: Nervous System Disorders, occurrences m [1]: 2 | TEAE by system organ class: Nervous System Disorders, participants n (%) [1]: 2 (33.3%) | TEAE by system organ class: Respiratory, Thoracic, and Mediastinal disorders, participants n (%) [1]: 0 | TEAE by system organ class: Skin and Subcutaneous Tissue Disorders, participants n (%) [1]: 0 | TEAE by system organ class: Vascular Disorders, participants n (%) [1]: 0 | TEAE severity Grade 1, occurrences m [1]: 7 | TEAE severity Grade 1, participants n (%) [1]: 5 (83.3%) | TEAE severity Grade 2, participants n (%) [1]: 0 | TEAE severity Grade 3, participants n (%) [1]: 0 | TEAE severity Grade 4, participants n (%) [1]: 0 | TEAE severity Grade 5, participants n (%) [1]: 0 | Treatment-related TEAE: Abdominal distension, participants n (%) [1]: 0 | Treatment-related TEAE: Blood and Lymphatic System Disorders, participants n (%) [1]: 0 | Treatment-related TEAE: Constipation, participants n (%) [1]: 0 | Treatment-related TEAE: Diarrhea, participants n (%) [1]: 0 | Treatment-related TEAE: Dizziness, participants n (%) [1]: 0 | Treatment-related TEAE: Feeling hot, participants n (%) [1]: 0 | Treatment-related TEAE: Gastrointestinal Disorders, participants n (%) [1]: 0 | Treatment-related TEAE: General Disorders and Administration Site Conditions, occurrences m [1]: 1 | Treatment-related TEAE: General Disorders and Administration Site Conditions, participants n (%) [1]: 1 (16.7%) | Treatment-related TEAE: Headache, participants n (%) [1]: 0 | Treatment-related TEAE: Infusion related reaction, participants n (%) [1]: 0 | Treatment-related TEAE: Infusion site discomfort, participants n (%) [1]: 0 | Treatment-related TEAE: Infusion site pain, participants n (%) [1]: 0 | Treatment-related TEAE: Infusion site reaction, participants n (%) [1]: 0 | Treatment-related TEAE: Infusion site swelling, participants n (%) [1]: 0 | Treatment-related TEAE: Injury, Poisoning, and Procedural Complications, participants n (%) [1]: 0 | Treatment-related TEAE: Macule, participants n (%) [1]: 0 | Treatment-related TEAE: Musculoskeletal and Connective Tissue Disorders, participants n (%) [1]: 0 | Treatment-related TEAE: Myalgia, participants n (%) [1]: 0 | Treatment-related TEAE: Nervous system disorders, participants n (%) [1]: 0 | Treatment-related TEAE: Oropharyngeal pain, participants n (%) [1]: 0 | Treatment-related TEAE: Orthostatic hypotension, participants n (%) [1]: 0 | Treatment-related TEAE: Phlebitis, participants n (%) [1]: 0 | Treatment-related TEAE: Respiratory, Thoracic, and Mediastinal disorders, participants n (%) [1]: 0 | Treatment-related TEAE: Skin and Subcutaneous Tissue Disorders, participants n (%) [1]: 0 | Treatment-related TEAE: Thrombocytopenia, participants n (%) [1]: 0 | Treatment-related TEAE: Vascular Disorders, participants n (%) [1]: 0 | Treatment-related TEAE: Vessel puncture site erythema, occurrences m [1]: 1 | Treatment-related TEAE: Vessel puncture site erythema, participants n (%) [1]: 1 (16.7%) | Treatment-related TEAE: Vessel puncture site pain, participants n (%) [1]: 0 | Treatment-related TEAE: Vomiting, participants n (%) [1]: 0 | Infusion related reaction: End Date/Time [2]: Day 1/6 hours | Infusion related reaction: Severity Grade [2]: Grade 1 | Number of Participants Reporting at least: One Dose-Limiting Toxicity, n (%) (Cohort 2: […] IV 1-hr infusion (N = 6)): 0 | Number of Participants Reporting at least: One Dose-Limiting Toxicity, n (%) (Cohort 3: […] IV 1-hr infusion (N = 5)): 0 | Number of Participants Reporting at least: One Dose-Limiting Toxicity, n (%) (Cohort 3b: […] IV 2-hr infusion (N = 6)): 0 | Severity of event: Localized IRR at right arm and shoulder ache [3]: Grade 1 | Severity of event: Myalgia [3]: Grade 1 | participants with IRRs (Cohort 4, 0.5 mg/kg over 2 hours in 250 mL): 3 | IRRs, events (Cohort 4, 0.5 mg/kg over 2 hours in 250 mL, all Grade 1, no study drug interruption): 4 | Number of Participants Reporting at least: Onc TEAE Leading to Study Withdrawal, n (%) (Cohort 4: 0.5 mg/kg IV 2-hr infusion (N = 6)): 0
